Measurements from ChEMBL document CHEMBL3044657, “Identification of an antiepileptic lead compound with a more selective activity and its analogues for GABA-AT using in silico approach” (2013).
Calls of active or inactive are those of the source. The rule behind the calls is not given here.

Assays:
Mus musculus [1] = organism: Mus musculus; test: Antiepileptic activity in Mus musculus (mouse) assessed as minimum dose required to protect half or more number of animals against maximal electroshock-induced seizures after 0.5 hr; format: functional; conditions: read-out: MED
Mus musculus [2] = test: Antiepileptic activity in Mus musculus (mouse) assessed as protection against maximal electroshock-induced seizures at 300 mg/kg after 0.5 hr; format: functional, organism-based; parameters: dose 300 mg/kg

For CCOc1ccc(NC(=O)N/N=C(\C)c2ccc(Cl)cc2)cc1, which minimal effective dose (Mus musculus [1]) is on record?
Its minimal effective dose is 300 mg/kg.

For CNC(=S)Nc1ccc(S(=O)(=O)Nc2nc3ccc(OC)cc3s2)cc1, which minimal effective dose (Mus musculus [1]) is on record?
Its minimal effective dose is 300 mg/kg.

For c1ccc2c(NC3=NSC(Nc4cccc5ccccc45)N3)cccc2c1 (centres undefined), which minimal effective dose (Mus musculus [1]) is on record?
Its minimal effective dose is 100 mg/kg.

O=C(N/N=C/c1ccccc1[N+](=O)[O-])Nc1ccc(Br)cc1 was tested. Which minimal effective dose (Mus musculus [1]) did it give?
Its minimal effective dose is 300 mg/kg.

How did the minimal effective dose (Mus musculus [1]) turn out when O=c1snc(Nc2cccc3ccccc23)n1-c1cccc2ccccc12 was run?
Its minimal effective dose is 100 mg/kg.

For CNC(=S)Nc1ccc(S(=O)(=O)Nc2ccc(Cl)cc2)cc1, which minimal effective dose (Mus musculus [1]) is on record?
The minimal effective dose was 300 mg/kg.

How did the minimal effective dose (Mus musculus [1]) turn out when CCOc1ccc(NC(=O)N/N=C(\C)CC(C)C)cc1 was run?
Its minimal effective dose is 100 mg/kg.

For Fc1ccc(NC2=NSC(Nc3ccc(F)cc3)N2)cc1 (centres undefined), which minimal effective dose (Mus musculus [1]) is on record?
Its minimal effective dose is 100 mg/kg.

Which minimal effective dose (Mus musculus [1]) does the source give for O=c1snc(Nc2ccccn2)n1-c1ccccn1 here?
The minimal effective dose was 300 mg/kg.

How did the Activity (Mus musculus [2]) turn out when C/C(=N\NC(=O)Nc1ccc(Br)cc1)c1ccc(C)cc1 was run?
The Activity was “inactive”.

Which minimal effective dose (Mus musculus [1]) does the source give for O=c1snc(Nc2ccc(F)cc2)n1-c1ccc(F)cc1 here?
Its minimal effective dose is 100 mg/kg.

How did the minimal effective dose (Mus musculus [1]) turn out when CCOc1ccc(NC(=O)N/N=C(\C)CC(C)=O)cc1 was run?
Its minimal effective dose is 100 mg/kg.

With CCNC(=S)Nc1ccc(S(=O)(=O)Nc2nc3ccc(F)cc3s2)cc1 as the compound, how does the minimal effective dose (Mus musculus [1]) read?
The minimal effective dose was 300 mg/kg.

How did the minimal effective dose (Mus musculus [1]) turn out when C/C(=N\NC(=O)Nc1ccc(Br)cc1)c1ccc(N)cc1 was run?
The minimal effective dose was 300 mg/kg.

Which minimal effective dose (Mus musculus [1]) does the source give for CCOc1ccc(NC(=O)N/N=C/c2ccccc2Cl)cc1 here?
The minimal effective dose was 100 mg/kg.

How did the minimal effective dose (Mus musculus [1]) turn out when CNC(=S)Nc1ccc(S(=O)(=O)Nc2ccc(Br)cc2)cc1 was run?
Its minimal effective dose is 300 mg/kg.

With CNC(=S)Nc1ccc(S(=O)(=O)Nc2nc3ccc(Cl)cc3s2)cc1 as the compound, how does the Activity (Mus musculus [2]) read?
The Activity was “inactive”.

O=c1snc(Nc2cccnc2)n1-c1cccnc1 was tested. Which minimal effective dose (Mus musculus [1]) did it give?
The minimal effective dose was 300 mg/kg.

O=C(NN=C1c2ccccc2C(=O)c2ccccc21)Nc1ccc([N+](=O)[O-])cc1 was tested. Which minimal effective dose (Mus musculus [1]) did it give?
Its minimal effective dose is 300 mg/kg.

Which minimal effective dose (Mus musculus [1]) does the source give for Cc1ccc(NC(=S)Nc2ccc(S(=O)(=O)Nc3ccc(Cl)cc3)cc2)cc1 here?
Its minimal effective dose is 100 mg/kg.

Which minimal effective dose (Mus musculus [1]) does the source give for COc1ccc(/C=N/NC(=O)Nc2ccc(Br)cc2)cc1OC here?
Its minimal effective dose is 300 mg/kg.

With CCOc1ccc(NC(=O)N/N=C/c2ccccc2O)cc1 as the compound, how does the minimal effective dose (Mus musculus [1]) read?
The minimal effective dose was 300 mg/kg.

For CNC(=S)Nc1ccc(S(=O)(=O)Nc2nc3ccc(F)cc3s2)cc1, which minimal effective dose (Mus musculus [1]) is on record?
Its minimal effective dose is 300 mg/kg.

With O=C(NN=C(c1ccccc1)c1ccccc1)Nc1ccc(Br)cc1 as the compound, how does the minimal effective dose (Mus musculus [1]) read?
The minimal effective dose was 300 mg/kg.

How did the minimal effective dose (Mus musculus [1]) turn out when c1ccc(NC2=NSC(Nc3ccccn3)N2)nc1 (centres undefined) was run?
Its minimal effective dose is 300 mg/kg.

Which minimal effective dose (Mus musculus [1]) does the source give for c1cc(NC2=NSC(Nc3ccncc3)N2)ccn1 (centres undefined) here?
Its minimal effective dose is 300 mg/kg.

With O=C(N/N=C/c1ccccc1Cl)Nc1ccc(Br)cc1 as the compound, how does the minimal effective dose (Mus musculus [1]) read?
Its minimal effective dose is 300 mg/kg.

How did the minimal effective dose (Mus musculus [1]) turn out when CC(C)=NNC(=O)Nc1ccc([N+](=O)[O-])cc1 was run?
The minimal effective dose was 300 mg/kg.

Which minimal effective dose (Mus musculus [1]) does the source give for C/C(=N\NC(=O)Nc1ccc(Br)cc1)c1ccc(O)cc1 here?
The minimal effective dose was 300 mg/kg.

Cc1ccc(NC(=S)Nc2ccc(S(=O)(=O)Nc3ccc(C)cc3)cc2)cc1 was tested. Which minimal effective dose (Mus musculus [1]) did it give?
Its minimal effective dose is 300 mg/kg.

For CCOc1ccc(NC(=O)N/N=C(\C)c2ccc(O)cc2)cc1, which minimal effective dose (Mus musculus [1]) is on record?
Its minimal effective dose is 100 mg/kg.

How did the minimal effective dose (Mus musculus [1]) turn out when CN(C)c1ccc(/C=N/NC(=O)Nc2ccc(Br)cc2)cc1 was run?
Its minimal effective dose is 300 mg/kg.

Which minimal effective dose (Mus musculus [1]) does the source give for c1cncc(NC2=NSC(Nc3cccnc3)N2)c1 (centres undefined) here?
Its minimal effective dose is 300 mg/kg.

CCOc1ccc(Nc2nsc(=O)n2-c2ccc(OCC)cc2)cc1 was tested. Which minimal effective dose (Mus musculus [1]) did it give?
Its minimal effective dose is 100 mg/kg.

For CCNC(=S)Nc1ccc(S(=O)(=O)Nc2nc3ccc(Cl)cc3s2)cc1, which Activity (Mus musculus [2]) is on record?
Its Activity is “inactive”.

Which minimal effective dose (Mus musculus [1]) does the source give for COc1cc(/C=N/NC(=O)Nc2ccc(Br)cc2)ccc1O here?
The minimal effective dose was 300 mg/kg.

With Cc1ccc(NC(=S)Nc2ccc(S(=O)(=O)Nc3ccc(Br)cc3)cc2)cc1 as the compound, how does the minimal effective dose (Mus musculus [1]) read?
Its minimal effective dose is 100 mg/kg.

Which minimal effective dose (Mus musculus [1]) does the source give for C/C(=N\NC(=O)Nc1ccc(Br)cc1)c1ccc([N+](=O)[O-])cc1 here?
The minimal effective dose was 300 mg/kg.

For O=c1snc(Nc2ncccn2)n1-c1ncccn1, which minimal effective dose (Mus musculus [1]) is on record?
Its minimal effective dose is 300 mg/kg.

Which minimal effective dose (Mus musculus [1]) does the source give for O=c1snc(Nc2ccncc2)n1-c1ccncc1 here?
Its minimal effective dose is 300 mg/kg.

CCOc1ccc(NC(=O)N/N=C(\C)c2ccccc2O)cc1 was tested. Which minimal effective dose (Mus musculus [1]) did it give?
Its minimal effective dose is 100 mg/kg.

With O=C1C=CC(=NNC(=O)Nc2ccc([N+](=O)[O-])cc2)C=C1 as the compound, how does the minimal effective dose (Mus musculus [1]) read?
Its minimal effective dose is 300 mg/kg.

For C/C(=N\NC(=O)Nc1ccc(Br)cc1)c1ccccc1, which minimal effective dose (Mus musculus [1]) is on record?
Its minimal effective dose is 100 mg/kg.

Which minimal effective dose (Mus musculus [1]) does the source give for CCOc1ccc(NC2=NSC(Nc3ccc(OCC)cc3)N2)cc1 (centres undefined) here?
The minimal effective dose was 100 mg/kg.
